What is called ED50 is the midpoint of the dose-response relation.

The values that follow come from patent publication US4154932A (priority 1977, dated 1979).

Where two headings read alike, the source gives them in different places.

Data set [1] relates to phenylquinone induced writhings. As to the kind of experiment: animal or person. The note with it: for ED50: Mus musculus; for sc/I. Vent.: ratio of ED50 sc/intraventricular. As for the experimental part: In vivo testing was conducted on many of the compounds of the present invention.
The test system of data set [2] is Straub Tail induced by oxymorphone. As to the kind of experiment: Antagonism of oxymorphone-induced Straub Tail (antagonist activity). The note with it: for ED50: Mus musculus; for Oxymorphone-Induced Straub Tail po/sc: ratio of ED50 po/sc. The data set is classed as in vivo, mouse. As for the experimental part:
^2 Antagonism of Straub Tail induced by oxymorphone (2 mg/kg, s.c.) i

The next data set concerns Rat Writhing. The data set can be described thus: Rat Writhing (analgetic activity). The data set is classed as in vivo. The note with it: Table 2; for ED50: Rattus norvegicus; for Rat Writhing po/sc: ratio of ED50 po/sc. Background: In writhing tests, fewer writhes than in controls are read as antinociception.
Another data set has as its system Rat Vocalization. As to the kind of experiment: Rat Vocalization (analgetic activity). The data set is classed as in vivo. Conditions: Table 2; for ED50: Rattus norvegicus; for Rat Vocalization po/sc: ratio of ED50 po/sc.
Data set [3] deals with Morphine Antagonism Rat Tail Flick. As to the kind of experiment: Morphine antagonism, Rat Tail Flick (antagonist activity). Conditions: Table 3; for ED50: Rattus norvegicus; for Morphine Antagonism Rat Tail Flick po/sc: ratio of ED50 po/sc. It counts as in vivo.
In data set [4] the test system is withdrawal jumping (abstinence). The data set can be described thus: Primary physical dependence test in mice (withdrawal jumping on naloxone challenge). The note with it: repeated sc injections for two days. The method, then:
(§1) Buprenorphine and (-)XI were tested for physical dependence liability in mice. […] The compounds were then tested as substitutes for morphine in withdrawn morphine-dependent mice.

For data set [5], the system named is withdrawn morphine-dependent mice. As to the kind of experiment: Substitution for morphine in withdrawn morphine-dependent mice. Conditions: 1 mg/kg sc, or less. The method, then:
as §1

A short description of data set [6]: Physical dependence liability in man (predicted from mouse models). Conditions: prediction from the mouse test model. As for the experimental part: as §1
Another data set deals with Cough Response. The data set can be described thus: animal or person. It counts as in vivo, dog. Conditions: for Percent Inhibition of Cough Response: 0.1 mg/kg sc; for ED50: Canis lupus familiaris, unanesthetized dog. The source says: Comparative Antitussive Effects of (-)-XI, Butorphanol and
Morphine Sulfate in the Unanesthetized Dog

[7] abbreviates: sc, read-out: Agonist Activity, Phenylquinone Writhing ED50.
[8] abbreviates: sc, mice, Table 1, oxymorphone 2 mg/kg, s.c., read-out: Antagonist Activity, Oxymorphone Straub Tail ED50.
Where [9] appears, read: central, read-out: Analgetic activity ED50, Intraventricular.
The mark [10] stands for this setting: po, read-out: Analgetic activity ED50, Mouse Writhing po.
Setting [11] is: sc, read-out: Analgetic activity ED50, Mouse Writhing sc.
Setting [12] is: sc, Table 3, read-out: Antagonist activity ED50, Oxymorphone-Induced Straub Tail sc.
Where [13] appears, read: po, read-out: Analgetic activity ED50, Rat Writhing po.
Where [14] appears, read: sc, read-out: Analgetic activity ED50, Rat Writhing sc.
[15] abbreviates: po, read-out: Analgetic activity ED50, Rat Vocalization po.
Setting [16] is: sc, read-out: Analgetic activity ED50, Rat Vocalization sc.
Where [17] appears, read: po, read-out: Antagonist activity ED50, Morphine Antagonism Rat Tail Flick po.
Setting [18] is: sc, read-out: Antagonist activity ED50, Morphine Antagonism Rat Tail Flick sc.
Setting [19] is: po, Table 3, read-out: Antagonist activity ED50, Oxymorphone-Induced Straub Tail po.

With `COc1ccc2c(c1)[C@]13CCN[C@H](C2)[C@@H]1CCOC3` (racemic) [(±)-VIII, 3-methoxy-6-oxamorphinan], the 50% effective dose (ED50) in [1] (setting [7]) was ~40 mg/kg; in data set [2] (setting [8]), > 40 mg/kg.

Take `Oc1ccc2c(c1)[C@]13CCN(CC4CC4)[C@H](C2)[C@@H]1CCOC3` (racemic) [(±)-XI, 17-Cyclopropylmethyl-3-hydroxy-6-oxamorphinan]: the ED50 in data set [1] (setting [7]) turned out to be 0.037 mg/kg; in data set [2] (setting [8]), 0.76 mg/kg.

Turning to `Oc1ccc2c(c1)[C@]13CCN(CC4CCC4)[C@H](C2)[C@@H]1CCOC3` (racemic) [(±)-XIV, 17-Cyclobutylmethyl-3-hydroxy-6-oxamorphinan], the values for the ED50 in data set [1] (setting [7]) and in [2] (setting [8]) were 0.015 mg/kg and ~6 mg/kg, respectively.

On to `COc1ccc2c(c1)[C@]13CCN(CC4CC4)[C@H](C2)[C@@H]1CCOC3` (racemic) [(±)-X, 17-Cyclopropylmethyl-3-methoxy-6-oxamorphinan], for which the 50% effective dose (ED50) in data set [1] (setting [7]) is 0.38 mg/kg; in data set [2] (setting [8]) it was 10 mg/kg.

With `CO[C@@]12CC[C@@]3(C[C@@H]1[C@](C)(O)C(C)(C)C)[C@H]1Cc4ccc(O)c5c4[C@@]3(CCN1CC1CC1)[C@H]2O5` [Buprenorphine], the ED50 in data set [1] (setting [9]) was 0.0004 mg/kg; in data set [1] (setting [10]), 0.27 mg/kg; in data set [1] (setting [11]) it was 0.021 mg/kg; in data set [2] (setting [12]) it was 0.46 mg/kg; in the data set with Rat Writhing (setting [13]), 0.16 mg/kg; in the data set with Rat Writhing (setting [14]) it was 0.013 mg/kg. Moreover, the median effective dose (ED50) is ~0.08 mg/kg in the data set on Rat Vocalization (setting [15]), 0.005 mg/kg with Rat Vocalization (setting [16]), 0.92 mg/kg in data set [3] (setting [17]) and 0.063 mg/kg in data set [3] (setting [18]). The “Mouse Writhing po/sc” value in data set [1] (ratio of ED50 po/sc, Table 2) was 13. The “sc/I. Vent.” value in data set [1] (Table 2) is 53. The “Rat Writhing po/sc” value with Rat Writhing is given as 12. For the same compound, the “Rat Vocalization po/sc” value in the data set with Rat Vocalization is on record as ~ 16. Further, the “Morphine Antagonism Rat Tail Flick po/sc” value in data set [3] amounted to 15. The “Withdrawal jumping (primary physical dependence)” value in data set [4] was “did not exhibit withdrawal jumping (abstinence)”. The Substitution for morphine entry in data set [5] is “complete substitution for morphine”. In data set [6], the “Predicted physical dependence liability in man” value is reported as “morphine-like”.

Turning to `COc1ccc2c(c1)[C@]13CCN(CC4CC4)[C@H](C2)[C@@H]1CCOC3` [(-)-X, (-)-17-Cyclopropylmethyl-3-methoxy-6-oxamorphinan], the values for the ED50 in data set [1] (setting [7]) and in data set [2] (setting [8]) were 0.14 mg/kg and ~6 mg/kg, respectively.

With `Oc1ccc2c(c1)[C@@]13CCCC[C@@]1(O)[C@@H](C2)N(CC1CCC1)CC3` [Butorphanol], the ED50 in data set [1] (setting [9]) amounted to 0.0019 mg/kg; in data set [1] (setting [10]), 5.1 mg/kg; in data set [1] (setting [11]), 0.045 mg/kg; in [2] (setting [19]), 55 mg/kg; in data set [2] (setting [12]), 0.98 mg/kg; with Rat Writhing (setting [13]) it was 2.1 mg/kg. The ED50 with Rat Writhing (setting [14]) stood at 0.04 mg/kg; in the data set on Rat Vocalization (setting [15]), 0.83 mg/kg; in the data set on Rat Vocalization (setting [16]) it was 0.012 mg/kg; in [3] (setting [17]) it was 22 mg/kg; in data set [3] (setting [18]) it was 0.43 mg/kg; in the data set with Cough Response (po, read-out: Oral antitussive ED50), 0.32 mg/kg. The median effective dose (ED50) in the data set with Cough Response (sc, read-out: Antitussive ED50) was 0.01 mg/kg. The Blood-brain barrier penetration result in data set [1] (mouse, in vivo) was “penetrate the blood-brain barrier more readily than either morphine or buprenorphine and to about the same degree as each other”. Besides, the “Mouse Writhing po/sc” value in data set [1] (ratio of ED50 po/sc, Table 2) was found to be 113. Besides, in data set [1] (Table 2), the “sc/I. Vent.” value was 24. The “Oxymorphone-Induced Straub Tail po/sc” value in data set [2] (Table 3) is 56. Besides, the “Rat Writhing po/sc” value in the data set on Rat Writhing came out at 53. In addition, the “Rat Vocalization po/sc” value with Rat Vocalization is given as 69. Besides, in [3], the “Morphine Antagonism Rat Tail Flick po/sc” value is on record as 51. Moreover, the “Percent Inhibition of Cough Response” value came out at 98% in the data set on Cough Response (15 min); 96% with Cough Response (30 min); 92% with Cough Response (60 min); 84% in the data set with Cough Response (120 min); 64% in the data set on Cough Response (180 min); 41% in the data set on Cough Response (240 min). Also, the “Percent Inhibition of Cough Response” value in the data set on Cough Response (300 min) was determined as 28%.

With `CN1CC[C@]23c4c5ccc(O)c4O[C@H]2[C@@H](O)C=C[C@H]3[C@H]1C5` [Morphine SO4], the median effective dose (ED50) in data set [1] (setting [9]) worked out at 0.0032 mg/kg; in data set [1] (setting [10]) it was 3.1 mg/kg; in data set [1] (setting [11]) it was 0.26 mg/kg; with Rat Writhing (setting [13]), 1.6 mg/kg; with Rat Writhing (setting [14]), 0.16 mg/kg; in the data set with Rat Vocalization (setting [15]), 2.1 mg/kg. In addition, the median effective dose (ED50) in the data set with Rat Vocalization (setting [16]) came out at 0.19 mg/kg. Besides, in [1] (mouse, in vivo), the “Mouse Writhing po/sc” value was 12. Moreover, in the data set with Rat Writhing, the “Rat Writhing po/sc” value was 10. In addition, the “Rat Vocalization po/sc” value in the data set on Rat Vocalization is 11. Also, the “Oral antitussive ED50” value in the data set with Cough Response (dog, in vivo, po) is listed as 0.62 mg/kg. For the same compound, in the data set with Cough Response (dog, in vivo, sc), the “Antitussive ED50” value amounted to 0.04 mg/kg.

For the compound `COc1ccc2c(c1)[C@]13CCN(CC4CCC4)[C@H](C2)[C@@H]1CCOC3` (racemic) [(±)-XIII, 17-Cyclobutylmethyl-3-methoxy-6-oxamorphinan], the ED50 is 0.38 mg/kg in data set [1] (setting [7]) and ~15 mg/kg in data set [2] (setting [8]).

Turning to `CN1CCC23COCCC2C1Cc1ccc(O)cc13` (racemic) [(±)-VI], the values for the ED50 in [1] (setting [7]) and in data set [2] (setting [8]) were 0.34 mg/kg and > 40 mg/kg, respectively.

Take `C=CCN1CC[C@]23c4c5ccc(O)c4O[C@H]2C(=O)CC[C@@]3(O)[C@H]1C5` [Naloxone, reference compound]: the ED50 came out at 13 mg/kg in data set [2] (setting [19]), 0.09 mg/kg in data set [2] (setting [12]), 2.7 mg/kg in data set [3] (setting [17]) and 0.01 mg/kg in [3] (setting [18]). Also, in data set [2] (Table 3), the “Oxymorphone-Induced Straub Tail po/sc” value was 144. For the same compound, the “Morphine Antagonism Rat Tail Flick po/sc” value in [3] was 270.

Take `COc1ccc2c(c1)[C@]13CCN(C)[C@H](C2)[C@@H]1CCOC3` (racemic) [(±)-V, 3-Methoxy-17-methyl-6-oxamorphinan]: the values for the ED50 in [1] (setting [7]) and in [2] (setting [8]) were 1.32 mg/kg and > 20 mg/kg, respectively.
